Test results from US11286258B2, “Nature-inspired anticancer and antibacterial motifs and pharmaceutical composition thereof” (University of Sharjah, priority 2020, dated 2022).
≈ marks a conversion by molar mass, not a printed value.

Tests used:
[1] = tested on: SKBR3 cells; experiment: Western blot, autophagy- and iron metabolism-related proteins, SKBR3; assay type: cell-based, human
Method: Western Blotting (autophagy- and iron metabolism-related proteins): Cells were grown in DMEM supplemented with 10% FBS and 1×PEST (Penicillin and streptomycin antibiotics) at 37° C. in incubator having humidified atmosphere with 5% CO2. The media were removed and cells were washed twice with 1× cold PBS. Cells lysis was performed with RIPA lysis buffer containing (150 mM sodium chloride, 1.0% NP-40, 0.1% SDS, 50 mM Tris pH 8.0, 0.5% sodium deoxycholate supplemented with protease inhibitors cocktail). Cells were kept on icebox during the lysis process. Cold lysis buffer was added to each well directly and then cells were scraped and collected in 1.5 ml Eppendorf tube. Cell lysis was kept on icebox for 20 minutes and then centrifuged at 4° C. for 10 minutes. The supernatant was collected and the pellet was discarded. After, protein quantification, samples were boiled in 5× loading buffer at 95° C. for 5 minutes. After completion of the gel running and transfer process, the membrane was stained with ponceau solution. After that, the membrane was washed with 1×TBST and then blocked in 5% non-fat dry milk for 1 hr at room temperature. The membrane was washed 3 times with 1×TBST and then incubated with indicated primary antibodies at 4° C. overnight. Primary antibodies were removed; the membrane was washed 3 times with 1×TBST and then incubated with secondary antibodies for 2 h at room temperature. Secondary antibodies were diluted in 5% non-fat dry milk in 1× TB ST. After removal of the secondary antibody, the membrane was washed 3 times with 1×TBST. The membrane was incubated in ECL solution and the signal was developed using Gel Doc system from Biorad.

[2] = tested on: SKBR3 and SKOV3; experiment: Crystal violet and DAPI staining; assay type: cell-based, human; details: compared to compounds 1d and 1k; 48 h
Method: Colony formation assay: Human Normal epithelial cells, SKBR3, and SKOV3 cells were treated with 1d, 1e and 1k compounds with indicated concentrations for 48 h. Then cells were fixed with colony fixation solution (Acetic acid/Methanol (1:7) vol/vol) at room temperature. 15 minutes later fixation solution was removed and cells were washed again carefully with 1×PBS. Cells were stained with 0.5% crystal violet at room temperature for 20 minutes. Crystal violet was removed and cells were washed carefully 3 times with distilled water to remove excess dye. Colony growth was visualized by crystal violet staining. DAPI staining: SKBR3 and SKOV3 cells were treated with indicated compounds. After 48 h of treatment, the media were removed from cell lines and cells were washed with 1× cold PBS. Cells were fixed with (Acetic acid/Methanol (1:7) vol/vol)) solution for 15 minutes at RT and then washed with 1× cold PBS. Permeabilization was performed with 0.1% Triton X-100 for 5 minutes and then cells were washed with 1× cold PBS. Cells were stain with DAPI solution for 15 minutes at RT and then cells were washed 3 times with 1× cold PBS. Images were taken using a fluorescence microscope.

[3] = tested on: 6 MRSA strains; experiment: MIC, panel of 6 MRSA strains; assay type: cell-based; details: Staphylococcus aureus, across the panel of tested Gram-positive strains, read-out: MIC against all the 6 MRSA strains
Method: Antibacterial activity: The compounds were tested for the minimum inhibitory concentrations (MIC), which is the lowest concentration of a chemical required to inhibit visible microbial growth following overnight incubation. MIC values were determined using broth microdilution method according to the Clinical and Laboratory Standards Institute guidelines (CLSI, 2015, M07-A10). Mueller-Hinton broth was used as a culture medium in all the experiments. Exponentially growing bacterial cells were prepared in Mueller-Hinton broth at a concentration of approximately 5×10^5 CFU/mL. Two-fold serial dilutions of the test compound (8 concentrations ranged between 100-0.78 μg/mL) were tested. […] In each experiment, solvent (DMSO) was used as a negative control, un-treated control (composing of bacteria in Mueller-Hinton broth) was used as a growth control, blank (culture media alone) was used as sterility control. The 96-well microplate with the test compounds was incubated overnight at 37° C. Turbidity in wells indicated bacterial growth.
The compounds were tested on six MDR Gram-positive bacteria including three clinical isolates of methicillin-resistant Staphylococcus aureus (MRSA-1, MRSA-2 and MRSA-3) and three reference MRSA strains (ATCC33591, ATCC33592 and ATCC700699). They were also tested on three MDR Gram-negative bacteria including New Delhi metallo-beta-lactamase (NDM-1) positive, carbapenem-resistant E. coli (ATCC BAA2469), extended-spectrum beta-lactamase (ESBL) producing, colistin-resistant E. coli (CDC-AR-0346) and carbapenem-resistant Acinetobacter baumannii (ATCC BAA1605), in addition to two non-MDR bacteria from the same species, namely E. coli (ATCC 25922) Acinetobacter baumannii (ATCC 19606).

| SMILES | Expression of BECLIN-1 [1] | Expression of Ferritin (FTH1) [1] | Expression of LC3B1/II [1] | Expression of pH2AX [1] | Nuclear damage in cancer cell lines (DAPI staining) [2] | MIC [3] |
| --- | --- | --- | --- | --- | --- | --- |
| FC(F)(F)c1ccc(N/N=C2\C=C[C@@]3(CC2)CC[C@@H]2NCCc4c2n3c2ccccc42)cc1 (racemic) [Compound 1e] | induced | induced | induced | induced | greater levels of nuclear damage |  |
| Cc1ccc2c(c1)c1c3n2[C@@]2(C=C/C(=N\Nc4ccc(C(F)(F)F)cc4)CC2)CC[C@@H]3NCC1 [Compound 1h] |  |  |  |  |  | 1.56 µg/mL (≈ 3.36 µM) |
